Experimental data published in patent publication EP2390266A1, “3-D Conformation of GLIC and allosteric modulation thereof” (priority 2010, dated 2011).

Columns and labels:
GLIC = target: T1, GLIC (Gloeobacter violaceus, UniProt Q7NDN8); details: cited from earlier work; for inhibition of GLIC: at clinical concentration; for nH: Hill number of the inhibition curve; for nH / currents inhibited by up to: EC20 concentration (pH 4.7-5.3) of protons; for IC50: currents elicited by an EC20 concentration (pH 4.7-5.3) of protons; for currents inhibited by up to: maximal inhibition
T1 sequence (Q7NDN8 44-359): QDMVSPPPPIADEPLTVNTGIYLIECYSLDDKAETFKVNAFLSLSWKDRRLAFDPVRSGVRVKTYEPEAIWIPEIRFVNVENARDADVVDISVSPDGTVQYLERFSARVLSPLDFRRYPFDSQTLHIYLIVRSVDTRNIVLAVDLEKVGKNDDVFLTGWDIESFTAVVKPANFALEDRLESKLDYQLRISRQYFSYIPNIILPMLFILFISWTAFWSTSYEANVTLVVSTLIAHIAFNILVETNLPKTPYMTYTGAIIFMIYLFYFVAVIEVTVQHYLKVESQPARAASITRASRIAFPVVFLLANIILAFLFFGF

I202A mutated GLIC = experiment: Two-electrode voltage clamp on oocytes, mutant GLIC; type: cell-based, Gloebacter violaceus
Protocol: (§1) • Figure 3A. […] Xenopus laevis oocytes, holding potential -60 to -40 mV.
(§2) For desflurane inhibition (figures 3C-3F), full dose-inhibition curves were measured at pH20.

I202W mutated GLIC = experiment: as above; type: cell-based, Gloebacter violaceus
Protocol: as §1, §2

T255A mutated GLIC = experiment: as above; type: cell-based, Gloebacter violaceus
Protocol: as §1, §2

I202Y mutated GLIC = experiment: as above; type: cell-based, Gloebacter violaceus
Protocol: as §1, §2

V242M mutated GLIC = experiment: as above; type: cell-based, Gloebacter violaceus
Protocol: as §1, §2

I258M mutated GLIC = details: activation at pH20 (pH 5.5 to 5.8)
Protocol: (§3) We monitored the inhibitory action of both anesthetics by two-electrode voltage clamp on oocytes expressing the GLIC channel. A typical experiment consists at activating the GLIC channel by an EC20 concentration of protons for 5 min, a period during which anesthetics are applied for 1min, 1 min after the onset of proton application.
(§4) Key residues contacting or neighboring propofol and desflurane in the 3D structure were mutated to alanine, or to more bulky residues in order to decrease the size of the binding pocket (mutants I202 A,Y,W, V242 A,M,W, T255A and I258A,M). […] Mutants were first characterized by their trace currents and proton dose-response curve (figures 3C-3F).

I258A mutated GLIC = details: activation at pH20 (pH 5.5 to 5.8)
Protocol: as §3, §4

V242A mutated GLIC = test system: V242A mutated GLIC
Protocol: as §3, §4

wild-type GLIC = wild-type GLIC (Gloeobacter violaceus, UniProt Q7NDN8); experiment: cell-based
Protocol: as §3

[1] = increased sensitivity for propofol
[2] = activation at pH20 (pH 5.5 to 5.8), 10 µM propofol (Fig. 3C)
[3] = activation at pH20 (pH 6.5-6.8), 10 µM propofol (Fig. 3C)

CC(O)CC(=O)O (stereo not shown) [3-hydroxybutyric acid]
inhibition of GLIC (GLIC): robustly inhibited

FC(F)OC(F)C(F)(F)F (stereo not shown) [desflurane, 2-(difluoromethoxy)-1,1,1,2-tetrafluoro-ethane]
nH (GLIC): 0.24 | inhibition of GLIC (GLIC): robustly inhibited | IC50 (GLIC): 10 µM | currents inhibited by up to (GLIC): up to 90% | desflurane inhibition, full dose-inhibition curve compared with WT (I202A mutated GLIC; at pH20): did not alter significantly | desflurane inhibition, full dose-inhibition curve compared with WT (I202W mutated GLIC; at pH20): did not alter significantly | desflurane inhibition, full dose-inhibition curve compared with WT (T255A mutated GLIC; at pH20, decreased sensitivity toward desflurane): dramatic shift of the curve to the right | desflurane inhibition, full dose-inhibition curve compared with WT (I202Y mutated GLIC; at pH20): did not alter significantly | desflurane inhibition, full dose-inhibition curve compared with WT (V242M mutated GLIC; at pH20): did not alter significantly

CCOC(=O)c1cncn1[C@H](C)c1ccccc1 [etomidate, ethyl 3-[(1R)-1-phenylethyl]imidazole-4-carboxylate]
inhibition of GLIC (GLIC): robustly inhibited

CC(C)c1cccc(C(C)C)c1O [propofol, 2,6-diisopropylphenol]
nH (GLIC): 0.39 | inhibition of GLIC (GLIC): robustly inhibited | IC50 (GLIC): 0.6 µM | currents inhibited by up to (GLIC): up to 90% | propofol inhibition compared with WT (I258M mutated GLIC): not significantly different from WT | propofol inhibition compared with WT (I258A mutated GLIC): not significantly different from WT | propofol inhibition compared with WT (V242A mutated GLIC; activation at pH20 (pH 5.5 to 5.8)): more inhibited | propofol dose-inhibition curve compared with wt (V242A mutated GLIC; [1]): shift of the dose-inhibition curve toward the left | propofol inhibition compared with WT (I202A mutated GLIC; [2]): not significantly different from WT | propofol inhibition compared with WT (I202W mutated GLIC; [2]): not significantly different from WT | propofol inhibition compared with WT (T255A mutated GLIC; [3]): more inhibited | propofol dose-inhibition curve compared with wt (T255A mutated GLIC; [1]): shift of the dose-inhibition curve toward the left | propofol inhibition compared with WT (I202Y mutated GLIC; [3]): not significantly different from WT | propofol inhibition compared with WT (V242M mutated GLIC; [2]): more inhibited | propofol dose-inhibition curve compared with wt (V242M mutated GLIC; [1]): shift of the dose-inhibition curve toward the left | inhibition of GLIC (wild-type GLIC; higher proton concentration (at the EC50)): no longer observed | inhibition at 10 µM (wild-type GLIC; read-out: inhibition of GLIC): 28%
